Measurements as given in article PMC11111408, “Concurrent inhibition of oncogenic and wild-type RAS-GTP for cancer therapy” (Nature, 2024).
Several values for one entry are separate records, joined by “and”; a condition that tells them apart may be missing. Identical values can stand only once.

Key:
[1] = system: NCI-H358 and MIA PaCa-2 cells expressing RTK constructs; assay: pERK (MSD) in NCI-H358 and MIA PaCa-2 cells expressing exogenous RTK or RTK fusion constructs; assay type: cell-based, human
NRAS^Q61R = NRAS^Q61R (Homo sapiens, UniProt P01111+P62937, Q61R); assay: RAS binding affinity of compound-bound CYPA (Kd2), SPR; conditions: steady state SPR, (95% CI)
NRAS^Q61K = NRAS^Q61K (Homo sapiens, UniProt P01111+P62937, Q61K); assay: as above; conditions: steady state SPR, (95% CI)
HRAS WT = HRAS WT (Homo sapiens, UniProt P01112+P62937); assay: Biochemical RAS–RAF (BRAF RBD) disruption, TR-FRET; parameters: His6-TEV (N); made in house; host or cells: E. coli BL21(DE3)
From the text: (§1) Time-resolved fluorescence resonance energy transfer (TR-FRET) was used as previously described to assess disruption of the interactions between wild-type RAS or the mutant oncogenic RAS proteins and the RAS-binding domain of BRAF, and to assess the induction of interactions between the RAS proteins and CYPA[12].

KRAS^G12S = KRAS^G12S (Homo sapiens, UniProt P01116+P62937, G12S); assay: Biochemical RAS–RAF (BRAF RBD) disruption, TR-FRET; parameters: His6-TEV (N); made in house; host or cells: E. coli BL21(DE3)
From the text: as §1

CCn1c(-c2cc(N3CCN(C4CC4)CC3)cnc2[C@H](C)OC)c2c3cc(ccc31)-c1csc(n1)C[C@H](NC(=O)[C@H]1[C@@H]3COC[C@@H]31)C(=O)N1CCC[C@H](N1)C(=O)OCC(C)(C)C2 [RMC-7977]
pERK inhibition in MiaPaCa2 RTK fusion overexpression cells treated with RMC-7977 ([1]; FGFR3-TACC3, RMC-7977 100.000 nM): 3.04 and 3.39 and 3.61 and 3.12 | pERK in NCI-H358 RTK overexpression cells treated with RMC-7977 ([1]; GFP, RMC-7977 0.0152 nM): 115.00 and 107.70 | pERK inhibition in H358 RTK overexpression cells ([1]; GFP, RMC-7977 0.0152 nM): 88.72 and 97.32 | pERK in NCI-H358 RTK overexpression cells treated with RMC-7977 ([1]; GFP, RMC-7977 0.0457 nM): 126.84 and 117.32 | pERK inhibition in H358 RTK overexpression cells ([1]; GFP, RMC-7977 0.0457 nM): 102.39 and 94.00 | pERK in NCI-H358 RTK overexpression cells treated with RMC-7977 ([1]; GFP, RMC-7977 0.41 nM): 51.59 and 78.61 | pERK inhibition in H358 RTK overexpression cells ([1]; GFP, RMC-7977 0.41 nM): 66.43 and 65.41 | pERK inhibition in MiaPaCa2 RTK fusion overexpression cells treated with RMC-7977 ([1]; GFP, RMC-7977 0.412 nM): 27.42 and 30.00 and 31.02 and 30.72 | pERK inhibition in MiaPaCa2 RTK fusion overexpression cells treated with RMC-7977 ([1]; GFP, RMC-7977 1.235 nM): 9.02 and 12.77 and 12.06 and 11.06 | pERK in NCI-H358 RTK overexpression cells treated with RMC-7977 ([1]; GFP, RMC-7977 11.11 nM): 4.80 | pERK inhibition in H358 RTK overexpression cells ([1]; GFP, RMC-7977 11.11 nM): 7.16 and 4.70 | pERK inhibition in MiaPaCa2 RTK fusion overexpression cells treated with RMC-7977 ([1]; GFP, RMC-7977 11.111 nM): 3.33 and 3.53 and 3.95 and 3.59 | pERK in NCI-H358 RTK overexpression cells treated with RMC-7977 ([1]; GFP, RMC-7977 33.33 nM): 2.56 and 2.82 | pERK inhibition in H358 RTK overexpression cells ([1]; GFP, RMC-7977 33.33 nM): 3.17 and 2.48 | pERK inhibition in MiaPaCa2 RTK fusion overexpression cells treated with RMC-7977 ([1]; GFP, RMC-7977 33.333 nM): 3.43 and 3.24 and 2.97 and 2.93 | pERK in NCI-H358 RTK overexpression cells treated with RMC-7977 ([1]; GFP, RMC-7977 100.00 nM): 2.07 and 1.93 | pERK inhibition in H358 RTK overexpression cells ([1]; GFP, RMC-7977 100.00 nM): 2.60 and 2.58 | pERK inhibition in MiaPaCa2 RTK fusion overexpression cells treated with RMC-7977 ([1]; GFP, RMC-7977 100.000 nM): 3.01 and 2.87 and 2.65 and 2.84 | pERK in NCI-H358 RTK overexpression cells treated with RMC-7977 ([1]; GFP, RMC-7977 300.00 nM): 2.17 and 2.42 | pERK inhibition in H358 RTK overexpression cells ([1]; GFP, RMC-7977 300.00 nM): 2.46 and 2.59 | pERK in NCI-H358 RTK overexpression cells treated with RMC-7977 ([1]; HER2, RMC-7977 0.0152 nM): 111.00 and 102.34 | pERK inhibition in H358 RTK overexpression cells ([1]; HER2, RMC-7977 0.0152 nM): 107.19 and 89.20 | pERK in NCI-H358 RTK overexpression cells treated with RMC-7977 ([1]; HER2, RMC-7977 0.0457 nM): 106.57 and 84.47 | pERK inhibition in H358 RTK overexpression cells ([1]; HER2, RMC-7977 0.0457 nM): 86.86 and 85.86 | pERK in NCI-H358 RTK overexpression cells treated with RMC-7977 ([1]; HER2, RMC-7977 0.41 nM): 72.44 and 63.75 | pERK inhibition in H358 RTK overexpression cells ([1]; HER2, RMC-7977 0.41 nM): 63.34 and 59.01 | pERK in NCI-H358 RTK overexpression cells treated with RMC-7977 ([1]; HER2, RMC-7977 11.11 nM): 2.66 | pERK inhibition in H358 RTK overexpression cells ([1]; HER2, RMC-7977 11.11 nM): 6.01 and 6.18 | pERK in NCI-H358 RTK overexpression cells treated with RMC-7977 ([1]; HER2, RMC-7977 33.33 nM): 1.70 and 1.64 | pERK inhibition in H358 RTK overexpression cells ([1]; HER2, RMC-7977 33.33 nM): 5.40 and 5.32 | pERK in NCI-H358 RTK overexpression cells treated with RMC-7977 ([1]; HER2, RMC-7977 100.00 nM): 1.42 and 1.69 | pERK in NCI-H358 RTK overexpression cells treated with RMC-7977 ([1]; HER2, RMC-7977 300.00 nM): 2.02 and 1.78 | pERK in NCI-H358 RTK overexpression cells treated with RMC-7977 ([1]; RET M918T, RMC-7977 0.0152 nM): 93.23 and 141.77 | pERK inhibition in H358 RTK overexpression cells ([1]; RET M918T, RMC-7977 0.0152 nM): 96.21 and 105.26 | pERK in NCI-H358 RTK overexpression cells treated with RMC-7977 ([1]; RET M918T, RMC-7977 0.0457 nM): 91.92 and 151.65 | pERK inhibition in H358 RTK overexpression cells ([1]; RET M918T, RMC-7977 0.0457 nM): 91.15 and 96.00 | pERK in NCI-H358 RTK overexpression cells treated with RMC-7977 ([1]; RET M918T, RMC-7977 0.41 nM): 60.67 and 71.79 | pERK inhibition in H358 RTK overexpression cells ([1]; RET M918T, RMC-7977 0.41 nM): 61.29 and 64.34 | pERK inhibition in H358 RTK overexpression cells ([1]; RET M918T, RMC-7977 3.70 nM): 20.58 and 17.35 | pERK in NCI-H358 RTK overexpression cells treated with RMC-7977 ([1]; RET M918T, RMC-7977 11.11 nM): 4.81 and 4.27 | pERK inhibition in H358 RTK overexpression cells ([1]; RET M918T, RMC-7977 11.11 nM): 7.08 and 6.42 | pERK in NCI-H358 RTK overexpression cells treated with RMC-7977 ([1]; RET M918T, RMC-7977 33.33 nM): 2.17 and 2.02 | pERK inhibition in H358 RTK overexpression cells ([1]; RET M918T, RMC-7977 33.33 nM): 3.13 and 3.07 | pERK in NCI-H358 RTK overexpression cells treated with RMC-7977 ([1]; RET M918T, RMC-7977 100.00 nM): 1.44 and 1.22 | pERK inhibition in H358 RTK overexpression cells ([1]; RET M918T, RMC-7977 100.00 nM): 1.99 and 2.21 | pERK in NCI-H358 RTK overexpression cells treated with RMC-7977 ([1]; RET M918T, RMC-7977 300.00 nM): 1.32 | pERK inhibition in H358 RTK overexpression cells ([1]; RET M918T, RMC-7977 300.00 nM): 2.03 and 1.88 | Kd (NRAS^Q61R): 239 nM | Kd (NRAS^Q61K): 72.4 nM | EC50 (HRAS WT): 59.9 nM | EC50 (KRAS^G12S): 107 nM
